# From patent EP0324130A2, “8-Glycine, 16-X, Des-19-Leucine-Calcitonin” (RORER INTERNATIONAL (OVERSEAS) INC. (a Delaware corporation), priority 1987, dated 1989)
# Peptide text beside a SMILES is read from it.
# Test system: serum calcium concentration
# Settings: rat, in vivo, sc
# Experimental: Biological Assay of Calcitonin Analogs in Vivo
# The biological potency of 8-glycine, 16-alanine des-19-leucine salmon calcitonin was determined by comparing the reduction of serum calcium concentration which followed administration by graded doses of Gly^8, Ala^16, des-Ley^19-SCT and synthetic salmon calcitonin standard. Rats were divided into four groups of seven animals, and each group was assigned at random to a dose of standard or test solution. Low and high doses were chosen from the linear portion of the dose-response curve. For the salmon calcitonin standard, the values were 0.7 and 2.1 ng. peptide/100 g. […] This does approximates 3 and 9 MU/100 g. […] Peptides were given by subcutaneous injection (0.2 ml/100 g. BW) and blood was withdrawn 1 hour later for serum calcium determination. Sera are processed and analyzed within two hours of collection.
smiles,measurement,value
"CC(C)C[C@H](NC(=O)CNC(=O)[C@@H]1CSSC[C@H](N)C(=O)N[C@@H](CO)C(=O)N[C@@H](CC(N)=O)C(=O)N[C@@H](CC(C)C)C(=O)N[C@@H](CO)C(=O)N[C@@H]([C@@H](C)O)C(=O)N1)C(=O)NCC(=O)N[C@@H](CCCCN)C(=O)N[C@@H](CC(C)C)C(=O)N[C@@H](CO)C(=O)N[C@@H](CCC(N)=O)C(=O)N[C@@H](CCC(=O)O)C(=O)N[C@@H](C)C(=O)N[C@@H](Cc1c[nH]cn1)C(=O)N[C@@H](CCCCN)C(=O)N[C@@H](CCC(N)=O)C(=O)N[C@H](C(=O)N[C@@H](Cc1ccc(O)cc1)C(=O)N1CCC[C@H]1C(=O)N[C@@H](CCCNC(=N)N)C(=O)N[C@H](C(=O)N[C@@H](CC(N)=O)C(=O)N[C@H](C(=O)NCC(=O)N[C@@H](CO)C(=O)NCC(=O)N[C@H](C(=O)N1CCC[C@H]1C(N)=O)[C@@H](C)O)[C@@H](C)O)[C@@H](C)O)[C@@H](C)O [Gly^8, Ala^16, des-Leu'^9-SCT, [8-Glycine, 16-Alanine, des-19-Leucine] salmon calcitonin] (HELM PEPTIDE1{C.S.N.L.S.T.C.G.L.G.K.L.S.Q.E.A.H.K.Q.T.Y.P.R.T.N.T.G.S.G.T.P.[am]}$PEPTIDE1,PEPTIDE1,1:R3-7:R3$$$V2.0)",biological potency,"2,500 IU/mg"
